Reference: ChEMBL document CHEMBL1131358, “An approach to use an unusual adenosine transporter to selectively deliver polyamine analogues to trypanosomes” (Bioorg Med Chem Lett, 1998)

Assays:
Trypanosoma brucei [1] = assay: Inhibitory activity against adenosine uptake through P2 adenosine transporter of blood stream Trypanosoma brucei trypomastigotes at the concentration 1 ug/mL
Trypanosoma brucei [2] = assay: Inhibitory activity against adenosine uptake through P2 adenosine transporter of blood stream Trypanosoma brucei trypomastigotes at the concentration 100 ug/mL
Trypanosoma brucei [3] = assay: Inhibitory activity against adenosine uptake through P2 adenosine transporter of blood stream Trypanosoma brucei trypomastigotes at the concentration 10 ug/mL
[4] = tested on: Trypanosoma brucei brucei; assay: In vitro activity against Trypanosoma brucei trypomastigotes form; format: functional, organism-based
[5] = tested on: Trypanosoma brucei brucei; assay: In vitro activity against bloodstream from trypomastigotes.; format: functional, organism-based

Row | Compound | inhibition (Trypanosoma brucei [1]) | inhibition (Trypanosoma brucei [2]) | inhibition (Trypanosoma brucei [3]) | IC50 [4] | IC50 [5]
1 | NCCCCN(CCCN)c1nc(N)nc(N)n1 | 29% | 73% | 47% | > 270 µM | –
2 | Nc1[nH]cnc2ncnc1-2 | 88% | 99% | 89% | – | –
3 | NCCCCN(CCCN)CCCNc1nc(N)nc(N)n1 | 7% | 61% | 5% | > 200 µM | –
4 | NCCCNCCCCN(CCCN)c1nc(N)nc(N)n1 | 24% | 60% | 44% | 12 µM | –
5 | N=C(N)c1ccc(/N=N/Nc2ccc(C(=N)N)cc2)cc1 [DIMINAZENE] | 67% | 99% | 84% | – | 0.003 µM

Now from value to compound:

Row | inhibition (Trypanosoma brucei [1]) | inhibition (Trypanosoma brucei [2]) | inhibition (Trypanosoma brucei [3]) | IC50 [4] | IC50 [5] | Compound
6 | 0% | 88% | 18% | – | 24 µM | Nc1nc(N)nc(NCCCNCCCNCCCCCCCNCCCNCCCNc2nc(N)nc(N)n2)n1
7 | 12% | 77% | 32% | – | 21 µM | NCCCNCCCCCCCNCCCNc1nc(N)nc(N)n1
8 | 36% | 93% | 63% | – | 110 µM | Nc1nc(N)nc(NCCCNCCCCCCCNCCCNc2nc(N)nc(N)n2)n1
9 | 2% | 37% | 17% | 24 µM | – | NCCCNCCCCN(CCCN)CCCNc1nc(N)nc(N)n1
